According to patent US20130331415A1, “COMPOSITIONS COMPRISING WNT INHIBITORS FOR TREATING CANCER” (priority 2010, published 2013):

Columns and labels:
[1] = tested on: OPM-2 myeloma cells; assay: Cell viability by DiOC6 staining, flow cytometry: OPM-2; assay type: cell-based, human; settings: for viability of OPM-2 cells, single drug or combination: three days, EA or CIC 30 μM, thalidomide 40 μM, lenalidomide 12 μM
Protocol: (§1) The lymphoma cell lines LAM-53, SU-DHL-4, Daudi and Raji, as well as the myeloma cell lines OPM-2, RPMI-8226 and U-266 (all obtained from DSMZ, Collection of Microorganisms and Cell Culture, Braunschweig, Germany) were cultured in RPMI-1640 Medium consisting of 10% heat-inactivated fetal calf serum (FCS, Invitrogen, Karlsruhe, Germany), 2.5% 1 M HEPES, and 1× penicillin/streptomycin (all from PAA Laboratories GmbH, Cölbe, Germany). Cells were cultured at a density of 3.3×10^5 cells ml^−1 andincubated at 37° C. with 5% CO2 and 95% humidity.
(§2) After addition of 5 μl PI-solution (100 μg/ml) the cells were analyzed by FACS.
(§3) Experiments were performed as reported recently.

[2] = tested on: PBMC; assay: Cell viability by DiOC6 staining, flow cytometry: PBMC of healthy individuals; assay type: cell-based, human
Protocol: as §2
PBMCs were isolated from blood of healthy donors by Ficoll-Hypaque density gradient centrifugation. Blood from buffy coats was mixed 1:2 with PBS/1% BSA (both PAA, Cölbe, Germany) and used for a ficoll gradient (LymphoPrep, PAA, Cölbe, Germany). After the centrifugation at 800 g for 30 minutes, the leukocyte layer was removed and transferred to new tubes.
as §3

[3] = tested on: PBL; assay: Cell viability by DiOC6 staining, flow cytometry: PBL of healthy individuals; assay type: cell-based, human
Protocol: as §2, §3

[4] = tested on: lymphoma cell lines (OCI-Ly8 LAM53, SU-DHL-4 and Raji); assay: Viability of lymphoma cell lines in vitro; assay type: cell-based, human
Protocol: as §2, §3

[5] = tested on: RPMI 8226 myeloma cells; assay: Cell viability by DiOC6 staining, flow cytometry: RPMI 8226; assay type: cell-based, human; settings: three days; EA or CIC 30 μM; thalidomide 20 μM; lenalidomide 80 μM
Protocol: as §1, §2, §3

[6] = tested on: U266 myeloma cells; assay: Cell viability by DiOC6 staining, flow cytometry: U266; assay type: cell-based, human; settings: three days; EA or CIC 30 μM; thalidomide 160 μM
Protocol: as §1, §2, §3

[7] = tested on: Wnt/beta catenin signaling; settings: 960 compounds screened; cited from earlier work
[8] = tested on: primary myeloma cells; assay: Viability of primary myeloma cells from bone marrow of patients; assay type: cell-based, human; settings: three days; preliminary data
Protocol: Bone marrow samples from patients with myeloma were taken after informed consent, single cell suspensions generated and cells ficolled. Cells were incubated with or without EA for three days and measured for viability.
Results represent data from two separate experiments. Data are shown as mean.
Bone marrow samples from patients with myeloma were taken after informed consent, single cell suspensions generated and cells ficolled. Cells were incubated with or without CIC for three days and measured for viability.
Bone marrow samples from patients with myeloma were taken after informed consent, single cell suspensions generated and cells ficolled. Cells were incubated with or without GF for three days and measured for viability.

[9] = tested on: primary CLL cells; settings: cited from earlier work
[10] = tested on: MPC11 myeloma cells; assay type: in vivo; settings: for animals in which solid tumor nodules formed: gavage 450 μg per animal daily; for overall survival compared to control group: oral 450 μg/day, 750 μg lenalidomide/day in combination
Protocol: Mice were treated orally with 450 μg/day EA and 750 μg lenalidomide/day, respectively. Overall survival and tumor growth were measured. Tumor volume was calculated as follows: volume=length×width^2×0.52.
Mice were treated orally with 450 μg/day CIC and 750 μg lenalidomide/day, respectively. Overall survival and tumor growth were measured. Tumor volume was calculated as follows: volume=length×width^2×0.52.
Mice were treated orally with 450 μg/day PO. Overall survival and tumor growth were measured. Tumor volume was calculated as follows: volume=length×width^2×0.52.

[11] = cited from earlier work
[12] = tested on: SU-DHL-4 lymphoma cells; assay: Cell viability by DiOC6 staining, flow cytometry: SU-DHL-4; assay type: cell-based; settings: Homo sapiens, EA 30 μM, after 72 h, read-out: relative viability, SU-DHL-4
Protocol: as §1, §2, §3

[13] = tested on: OCI-Ly8 LAM53 lymphoma cells; assay: Cell viability by DiOC6 staining, flow cytometry: OCI-Ly8 LAM53; assay type: cell-based; settings: Homo sapiens, EA 30 μM, after 72 h, read-out: relative viability, LAM-53
Protocol: as §1, §2, §3

[14] = tested on: Raji lymphoma cells; assay: Cell viability by DiOC6 staining, flow cytometry: Raji; assay type: cell-based, human; settings: for viability of Raji cells, single drug or combination: EA or CIC 30 μM, data not shown
Protocol: as §1, §2, §3

[15] = tested on: Daudi lymphoma cells; assay: Cell viability by DiOC6 staining, flow cytometry: Daudi; assay type: cell-based, human; settings: EA or CIC 30 μM; data not shown
Protocol: as §1, §2
as §1, with “and incubated” for “andincubated”
as §3

[16] = tested on: myeloma cells (OPM-2, U266 and RPMI 8226); assay: Viability of myeloma cell lines, mean IC50 over OPM-2, U266 and RPMI 8226; assay type: cell-based, human
Protocol: A mean IC50 value in myeloma cells was determined using the mean of the IC50 results determined in OPM-2, U266 and RPMI 8226 cells.

## Nc1cccc2c1CN(C1CCC(=O)NC1=O)C2=O (racemic) [lenalidomide, (RS)-3-(4-amino-1-oxo-3H-isoindol-2-yl)piperidine-2,6-dione]
[1]
  viability of OPM-2 cells, single drug or combination: significant decrease in viability
[2]
  effect on normal PBMC: marginal
[3]
  effect on normal PBL: marginal
[4]
  viability of lymphoma cell lines in vitro: no effect
[5]
  viability of RPMI-8226 cells, single drug or combination: significant decrease in viability

## O=C1CCC(N2C(=O)c3ccccc3C2=O)C(=O)N1 (racemic) [thalidomide, (RS)-2-(2,6-dioxopiperidin-3-yl)-1H-isoindole-1,3(2H)-dione]
[1]
  viability of OPM-2 cells, single drug or combination: significant decrease in viability
[2]
  effect on normal PBMC: no effect
[3]
  effect on normal PBL: no effect
[4]
  viability of lymphoma cell lines in vitro: no effect
[5]
  viability of RPMI-8226 cells, single drug or combination: significant decrease in viability
[6]
  viability of U-266 cells, single drug or combination: significant decrease in viability

## Cc1cc(C2CCCCC2)n(O)c(=O)c1 [CIC, ciclopirox olamine]
[2]
  effect on normal PBMC: marginal
[3]
  effect on normal PBL: marginal
[7]
  result of TOPflash reporter screen: Wnt/beta catenin inhibitors
[4]
  viability of lymphoma cell lines in vitro: significantly (p<0.05) decreased the viability
[8]
  growth of primary myeloma cells from bone marrow of patients: inhibits the growth
[9]
  cell death in primary CLL cells: selectively induced cell death
[10]; oral 450 μg/day CIC, 750 μg lenalidomide/day
  tumor growth compared to control mice: significantly reduced

## Cc1cc(C2CCCCC2)n(O)c(=O)c1 [Ciclopirox, 6-cyclohexyl-1-hydroxy-4-methyl-1,2-dihydropyridin-2-one]
[11]
  solubility in methanol: soluble

## C=C(CC)C(=O)c1ccc(OCC(=O)O)c(Cl)c1Cl [EA, 2-[2,3-dichloro-4-(2-methylidenebutanoyl)phenoxy]acetic acid]
[7]
  result of TOPflash reporter screen: Wnt/beta catenin inhibitors
[4]
  viability of lymphoma cell lines in vitro: significantly (p<0.05) decreased the viability
[8]
  growth of primary myeloma cells from bone marrow of patients: inhibits the growth
[12]
  viability at 30 µM: 97.6%
[11]
  solubility in water: slightly solube
[11]; e.g. alcohols, chloroform, and benzene
  solubility in most organic solvents: soluble
[13]
  viability at 30 µM: 91%
[9]
  cell death in primary CLL cells: selectively induced cell death
[14]; Homo sapiens, Raji, EA 30 μM, after 72 h, read-out: relative viability, Raji
  viability at 30 µM: 78.9%
[10]; oral 450 μg/day EA, 750 μg lenalidomide/day, p<0.001
  tumor growth compared to mice treated with lenalidomide alone: significantly reduced

## CC(C)C[C@H](NC(=O)[C@H](Cc1ccccc1)NC(=O)c1cnccn1)B(O)O [bortezomib]
[1]
  viability of OPM-2 cells, single drug or combination: significant decrease in viability

## COc1cccc2c1C(=O)c1c(O)c3c(c(O)c1C2=O)C[C@@](O)(C(=O)CO)C[C@@H]3O[C@H]1C[C@H](N)[C@H](O)[C@H](C)O1 [doxorubicin]
[15]
  viability of Daudi cells, single drug or combination: significant decrease in viability
[14]
  viability of Raji cells, single drug or combination: significant decrease in viability

## COC1=CC(=O)C[C@@H](C)[C@]12Oc1c(Cl)c(OC)cc(OC)c1C2=O [griseofulvin, (2S,6′R)-7-chloro-2′,4,6-trimethoxy-6′-methyl-3H,4′H-spiro[1-benzofuran-2,1′-cyclohex[2]ene]-3,4′-dione]
[4]
  viability of lymphoma cell lines in vitro: significantly (p<0.05) decreased the viability
[8]
  growth of primary myeloma cells from bone marrow of patients: inhibits the growth
[16]
  viability of myeloma cell lines in vitro: significantly decreased the viability
[10]
  animals in which solid tumor nodules formed: 5 of 6
  overall survival compared to control group: significantly (p<0.05) longer

## Cc1cc(CC(C)CC(C)(C)C)n(O)c(=O)c1 (stereo not shown) [piroctone olamine]
[1]; 0.1 uM, three days (FIG. 12)
  mode of cytotoxic activity: induction of apoptosis
[3]
  effect on normal PBL: marginal
[4]
  viability of lymphoma cell lines in vitro: significantly (p<0.05) decreased the viability
[8]
  growth of primary myeloma cells from bone marrow of patients: inhibits the growth
[16]
  viability of myeloma cell lines in vitro: significantly decreased the viability
[10]
  animals in which solid tumor nodules formed: 5 of 6
  overall survival compared to control group: significantly (p<0.05) longer

## rituximab
[15]
  viability of Daudi cells, single drug or combination: significantly decreased
[14]
  viability of Raji cells, single drug or combination: significantly decreased
